Source: patent publication US20090117563A1, “Identification of TRPML3 (MCOLN3) as a Salty Taste Receptor and Use in Assays for Identifying Taste (Salty) Modulators and/or Therapeutics that Modulate Sodium Transport, Absorption or Excretion and/or Aldosterone and/or Vasopressin Production or Release” (priority 2007, published 2009)

Biological target: T1, A419P TRPML3 (Homo sapiens, UniProt Q8TDD5, A419P)
T1 construct: expressed in transfected cells
T1 sequence (Q8TDD5 1-553 A419P): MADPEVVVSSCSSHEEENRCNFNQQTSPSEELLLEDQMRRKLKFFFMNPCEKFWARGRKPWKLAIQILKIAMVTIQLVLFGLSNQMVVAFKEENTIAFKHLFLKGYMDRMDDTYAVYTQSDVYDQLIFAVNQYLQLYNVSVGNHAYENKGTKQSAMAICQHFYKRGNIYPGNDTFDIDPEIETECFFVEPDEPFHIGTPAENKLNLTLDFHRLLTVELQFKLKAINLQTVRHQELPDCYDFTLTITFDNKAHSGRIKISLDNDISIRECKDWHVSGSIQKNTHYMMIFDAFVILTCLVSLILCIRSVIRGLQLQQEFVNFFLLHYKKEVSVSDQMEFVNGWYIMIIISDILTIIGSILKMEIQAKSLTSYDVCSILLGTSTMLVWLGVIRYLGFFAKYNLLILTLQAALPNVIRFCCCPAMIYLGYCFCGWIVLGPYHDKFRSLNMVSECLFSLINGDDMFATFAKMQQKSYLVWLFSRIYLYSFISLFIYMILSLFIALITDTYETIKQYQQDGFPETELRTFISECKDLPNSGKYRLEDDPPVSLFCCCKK
Experiment: Whole cell voltage clamp, A419P TRPML3 stably expressed in CHO cells
Assay type: cell-based
Details: 1 mM GdCl3 compared to buffer alone
Text: The whole cell voltage clamp technique is an electrophysiology method that measures the macroscopic electrical current flowing across the entire plasma membrane though protein channels. Live mammalian cells are placed in a special microscope chamber containing extracellular solution. Guided by a micromanipulator and under visual control, a small diameter glass pipette filled with an electrically conductive salt solution is first attached to the cell membrane using gentle negative pressure resulting in a high resistance gigaOhm seal. The membrane patch within the pipette is disrupted using further suction resulting in the whole cell patch clamp configuration. The whole cell patch clamp configuration allows the combined measurement of all ion channels proteins within the membrane or macroscopic current. Using the patch clamp amplifier in combination with the whole-cell patch clamp configuration allows the operator to control the voltage, or potential difference across the entire cell membrane, as well as the both the internal and external ionic composition of the cell. […]

[Cl][Gd]([Cl])[Cl] [gadolinium, gadolinium chloride]
effect on inward current (listed as Gadolinium chloride): blocked
effect on inward current (listed as GdCl3): decrease in inward current
